Results published in PubChem BioAssay AID248 (DTP/NCI, 2004).
Several values for one entry are separate records, joined by “and”; a condition that tells them apart may be missing. Equal values may be shown once. Toxic doses and inconclusive results are not listed. Cut-off read from the data, not from the text of the source: active = T/C of 150% or more; inactive = T/C below 125%.

Test system: L1210 leukemia ip in BDF1 mice, survival T/C
Experiment: NCI In Vivo Anticancer Drug Screen. Data for tumor model L1210 Leukemia (intraperitoneal) in B6D2F1 (BDF1) mice
Conditions: higher = longer survival
Procedure, shortened: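 Ratio derived from survival: compound-dosed mice over vehicle-dosed mice, all bearing a transplantable tumor.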

[1] = endpoint: mean survival time, dose: 100.0 mg/kg/injection, schedule: Q01DX009 (ip), vehicle: Klucel (hydroxypropylcellulose) (HPC)
[2] = endpoint: mean survival time, dose: 200.0 mg/kg/injection, schedule: Q01DX009 (ip), vehicle: Klucel (hydroxypropylcellulose) (HPC)
[3] = endpoint: mean survival time, dose: 400.0 mg/kg/injection, schedule: Q01DX009 (ip), vehicle: Klucel (hydroxypropylcellulose) (HPC)
[4] = endpoint: mean survival time, dose: 100.0 mg/kg/injection, schedule: Q01DX001 (ip), vehicle: carboxymethylcellulose (CMC)
[5] = endpoint: mean survival time, dose: 200.0 mg/kg/injection, schedule: Q01DX001 (ip), vehicle: carboxymethylcellulose (CMC)
[6] = endpoint: mean survival time, dose: 400.0 mg/kg/injection, schedule: Q01DX001 (ip), vehicle: carboxymethylcellulose (CMC)
[7] = endpoint: mean survival time, dose: 100.0 mg/kg/injection, schedule: Q04DX002 (ip), vehicle: Klucel (hydroxypropylcellulose) (HPC)
[8] = endpoint: mean survival time, dose: 200.0 mg/kg/injection, schedule: Q04DX002 (ip), vehicle: Klucel (hydroxypropylcellulose) (HPC)
[9] = endpoint: mean survival time, dose: 400.0 mg/kg/injection, schedule: Q04DX002 (ip), vehicle: Klucel (hydroxypropylcellulose) (HPC)
[10] = endpoint: mean survival time, dose: 100.0 mg/kg/injection, schedule: Q04DX003 (ip), vehicle: saline

Measured: T/C

Cc1cc(C)c(NC(=O)Nc2ccccc2C)c(C)c1
inactive: [1] 97 % of control | endpoint: mean survival time, dose: 100.0 mg/kg/injection, schedule: Q04DX003 (ip), vehicle: Klucel (hydroxypropylcellulose) (HPC) 108 % of control | [2] 103 % of control | endpoint: mean survival time, dose: 200.0 mg/kg/injection, schedule: Q04DX003 (ip), vehicle: Klucel (hydroxypropylcellulose) (HPC) 98 % of control | [3] 99 % of control | endpoint: mean survival time, dose: 400.0 mg/kg/injection, schedule: Q04DX003 (ip), vehicle: Klucel (hydroxypropylcellulose) (HPC) 94 % of control

O=C(NO)c1ccc(F)cc1
inactive: [4] 103 % of control | [5] 97 % of control | [6] 92 % of control

CN/N=C/c1ccc([N+](=O)[O-])o1
inactive: endpoint: mean survival time, dose: 100.0 mg/kg/injection, schedule: Q04DX003 (ip), vehicle: saline with Tween-80 97 % of control | endpoint: mean survival time, dose: 200.0 mg/kg/injection, schedule: Q04DX003 (ip), vehicle: saline with Tween-80 88 % of control

CC(=O)Nc1ccc(OCCOC(=O)Nc2ccccc2C(F)(F)F)cc1
inactive: [1] 91 % of control | [2] 105 % of control | [3] 93 % of control

CC(C)C1OCCO1
inactive: endpoint: mean survival time, dose: 50.0 mg/kg/injection, schedule: Q01DX009 (ip), vehicle: acetone 92 % of control | endpoint: mean survival time, dose: 100.0 mg/kg/injection, schedule: Q01DX009 (ip), vehicle: acetone 101 % of control | endpoint: mean survival time, dose: 200.0 mg/kg/injection, schedule: Q01DX009 (ip), vehicle: acetone 95 % of control

COc1cc(NC(=O)O/N=C/c2ccccn2)cc(OC)c1OC
inactive: endpoint: mean survival time, dose: 100.0 mg/kg/injection, schedule: Q01DX009 (ip), vehicle: saline with Tween-80 91 % of control | endpoint: mean survival time, dose: 200.0 mg/kg/injection, schedule: Q01DX009 (ip), vehicle: saline with Tween-80 92 % of control

Oc1ccccc1C=Nc1cc(Cl)ccc1O
inactive: endpoint: mean survival time, dose: 100.0 mg/kg/injection, schedule: Q01DX001 (ip), vehicle: saline 97 % of control | endpoint: mean survival time, dose: 200.0 mg/kg/injection, schedule: Q01DX001 (ip), vehicle: saline 95 % of control | endpoint: mean survival time, dose: 400.0 mg/kg/injection, schedule: Q01DX001 (ip), vehicle: saline 103 % of control

COC1OC(CCl)C(OC(C)=O)C(OC(C)=O)C1OS(C)(=O)=O (centres undefined)
inactive: [7] 91 % of control | [8] 91 % of control | [9] 97 % of control

COc1cccc2c1C(=O)c1c(O)c3c(c(O)c1C2=O)C[C@@](O)(C(C)=O)C[C@@H]3OC1CC(NC(C)=O)C(O)C(C)O1 (some centres undefined)
inactive: endpoint: mean survival time, dose: 0.63 mg/kg/injection, schedule: Q01DX001 (ip), vehicle: other 101 % of control | endpoint: mean survival time, dose: 1.25 mg/kg/injection, schedule: Q01DX001 (ip), vehicle: other 103 % of control | endpoint: mean survival time, dose: 1.9 mg/kg/injection, schedule: Q01DX009 (ip), vehicle: saline 103 % of control | endpoint: mean survival time, dose: 2.5 mg/kg/injection, schedule: Q01DX001 (ip), vehicle: other 107 % of control | endpoint: mean survival time, dose: 3.8 mg/kg/injection, schedule: Q01DX009 (ip), vehicle: saline 103 % of control | endpoint: mean survival time, dose: 5.0 mg/kg/injection, schedule: Q01DX001 (ip), vehicle: other 106 % of control | endpoint: mean survival time, dose: 7.5 mg/kg/injection, schedule: Q01DX009 (ip), vehicle: saline 111 % of control | endpoint: mean survival time, dose: 10.0 mg/kg/injection, schedule: Q01DX001 (ip), vehicle: other 111 % of control | endpoint: mean survival time, dose: 10.0 mg/kg/injection, schedule: Q01DX001 (ip), vehicle: saline 114 % of control | endpoint: mean survival time, dose: 20.0 mg/kg/injection, schedule: Q01DX001 (ip), vehicle: other 123 % of control | endpoint: mean survival time, dose: 20.0 mg/kg/injection, schedule: Q01DX001 (ip), vehicle: saline 111 % of control | endpoint: mean survival time, dose: 40.0 mg/kg/injection, schedule: Q01DX001 (ip), vehicle: other 122 % of control | endpoint: mean survival time, dose: 40.0 mg/kg/injection, schedule: Q01DX001 (ip), vehicle: saline 124 % of control | endpoint: mean survival time, dose: 160.0 mg/kg/injection, schedule: Q01DX001 (ip), vehicle: saline 122 % of control | endpoint: mean survival time, dose: 320.0 mg/kg/injection, schedule: Q01DX001 (ip), vehicle: saline 113 % of control | endpoint: median survival time, dose: 75.0 mg/kg/injection, schedule: Q01DX001 (ip), vehicle: propolene glycol 122 % of control and 124 % of control | endpoint: median survival time, dose: 400.0 mg/kg/injection, schedule: Q01DX001 (ip), vehicle: propolene glycol 98 % of control and 88 % of control

Cc1ccc(C(/C=C/c2ccccc2)=N\N=C(N)N)cc1
inactive: endpoint: mean survival time, dose: 15.0 mg/kg/injection, schedule: Q01DX Z (ip), vehicle: methylcellulose (MC) 87 % of control | endpoint: mean survival time, dose: 30.0 mg/kg/injection, schedule: Q01DX Z (ip), vehicle: methylcellulose (MC) 87 % of control | endpoint: mean survival time, dose: 30.0 mg/kg/injection, schedule: Q01DX Z (oral), vehicle: methylcellulose (MC) 93 % of control | endpoint: mean survival time, dose: 60.0 mg/kg/injection, schedule: Q01DX Z (ip), vehicle: methylcellulose (MC) 97 % of control | endpoint: mean survival time, dose: 60.0 mg/kg/injection, schedule: Q01DX Z (oral), vehicle: methylcellulose (MC) 87 % of control | endpoint: mean survival time, dose: 120.0 mg/kg/injection, schedule: Q01DX Z (oral), vehicle: methylcellulose (MC) 95 % of control | endpoint: mean survival time, dose: 240.0 mg/kg/injection, schedule: Q01DX Z (oral), vehicle: methylcellulose (MC) 95 % of control | endpoint: mean survival time, dose: 480.0 mg/kg/injection, schedule: Q01DX Z (oral), vehicle: methylcellulose (MC) 100 % of control

Cn1nc(SCc2ccccc2)c(=O)[nH]c1=O
inactive: endpoint: mean survival time, dose: 75.0 mg/kg/injection, schedule: Q01DX001 (ip), vehicle: saline 97 % of control | endpoint: mean survival time, dose: 150.0 mg/kg/injection, schedule: Q01DX001 (ip), vehicle: saline 104 % of control

CC(CO)(CO)N=Cc1cc(Cl)cc(Cl)c1O
inactive: endpoint: mean survival time, dose: 50.0 mg/kg/injection, schedule: Q01DX001 (ip), vehicle: carboxymethylcellulose (CMC) 107 % of control | [4] 97 % of control | [5] 107 % of control | [6] 97 % of control

Cc1ccc(-n2cccc2)cc1
inactive: endpoint: mean survival time, dose: 50.0 mg/kg/injection, schedule: Q04DX002 (ip), vehicle: Klucel (hydroxypropylcellulose) (HPC) 90 % of control | [7] 93 % of control and 90 % of control | [8] 90 % of control | [9] 106 % of control

CCN(CC)c1ccc(NCS(=O)(=O)O)cc1
inactive: endpoint: mean survival time, dose: 50.0 mg/kg/injection, schedule: Q01DX009 (ip), vehicle: saline sonified 103 % of control | endpoint: mean survival time, dose: 100.0 mg/kg/injection, schedule: Q01DX009 (ip), vehicle: saline sonified 101 % of control | [10] 110 % of control

O=[N+]([O-])C1CC(O)CCC1SSC1CCC(O)CC1[N+](=O)[O-] (centres undefined)
inactive: endpoint: mean survival time, dose: 100.0 mg/kg/injection, schedule: Q04DX002 (ip), vehicle: other 106 % of control | endpoint: mean survival time, dose: 200.0 mg/kg/injection, schedule: Q04DX002 (ip), vehicle: other 103 % of control | endpoint: mean survival time, dose: 400.0 mg/kg/injection, schedule: Q04DX002 (ip), vehicle: other 98 % of control

COC(=O)c1cc(I)cc(I)c1N
inactive: endpoint: mean survival time, dose: 100.0 mg/kg/injection, schedule: Q01DX001 (ip), vehicle: saline with Tween-80 98 % of control | endpoint: mean survival time, dose: 200.0 mg/kg/injection, schedule: Q01DX001 (ip), vehicle: saline with Tween-80 98 % of control | endpoint: mean survival time, dose: 400.0 mg/kg/injection, schedule: Q01DX001 (ip), vehicle: saline with Tween-80 100 % of control

CSc1nc(C)cc(SC(=N)N)n1
inactive: endpoint: mean survival time, dose: 25.0 mg/kg/injection, schedule: Q01DX009 (ip), vehicle: saline 105 % of control | endpoint: mean survival time, dose: 25.0 mg/kg/injection, schedule: Q04DX003 (ip), vehicle: saline 98 % of control | endpoint: mean survival time, dose: 50.0 mg/kg/injection, schedule: Q01DX009 (ip), vehicle: saline 102 % of control | endpoint: mean survival time, dose: 50.0 mg/kg/injection, schedule: Q04DX003 (ip), vehicle: saline 97 % of control | [10] 100 % of control and 101 % of control
